Usually melting point stands for the temperature, or range, at which the solid turns liquid. By solubility is commonly meant the dissolved amount per volume that the medium holds. The low end stands for a poorly soluble substance, the high end for a readily soluble substance.

The values that follow come from patent US6673801B1, “Dihydroxyhexanoic acid derivatives” (Pfizer Inc., priority 1998, dated 2004).

The nature of data set [1]: Kinetic solubility assay (turbidometric, phosphate buffer). The conditions noted are these: pH 7, aqueous buffer, kinetic from dmso stock.
Method: (§1) Solubility of the compounds is determined at four fixed concentrations and is expressed as μg/mL. Solubility or insolubility is measured in phosphate buffer using a turbidometric plate reader by automated micro addition of a compound predissolved in DMSO. Solubilities at 50, 100, 200 and 250 or 100, 200, 400 and 500 micrograms/mL can be determined by predissolving 1 mg of compound in sufficient DMSO to reach an initial concentration of 20 or 40 μg/uL.
(§2) A spectramax 250 UV transparent 96 well microplate is filled with 200 uL of Stock pH 7 phosphate buffer solution. A series of 25 absorption readings in a 5 by 5 matrix at a wavelength of 492 nm are taken for each well in the microplate containing pH buffer alone. This scan is to be used as a “blank”, and the raw optical dispersion (OD) values are used as a baseline.
(§3) Compounds in DMSO solution are then added (column wise) down the microplate. Up to twenty four samples are assayed with each compound being placed in four contiguous wells column wise. Each column of the microplate contains four concentrations of compound in ascending concentration and ascending row order (A-D), or row (E-H). […] The plate is then shaken for 20 minutes to allow for mixing.
(§4) After compound addition, a second scan consisting of a series of 25 absorption readings in a 5 by 5 matrix are taken for each well in the microplate at the same wavelength as the first blank scan. The raw compound OD values for each reading in the 5 by 5 matrix are subtracted from the corresponding “blank” values in the 5 by 5 matrix to provide the raw solubility OD data.
(§5) Data obtained from the Tecan SLT Spectra Image Reader is then analyzed using a Visual Basic computer program (or can be calculated manually according to methods well known to those of ordinary skill in the art), so as to provide solubility data for each compound.
The conditions of data set [2]: pH 7.
Method: as §1, §2, §3, §4, §5

`CC(C)(O)CC[C@H](C[C@H](O)[C@H](Cc1ccccc1F)NC(=O)c1cnc2ccccc2n1)C(N)=O` [Example 9, Quinoxaline-2-carboxylic acid [4(R)-carbamoyl-1(S)-(2-fluoro-benzyl)-2(S),7-dihydroxy-7-methyl-octyl]-amide]: the melting point fell in the range of 147 to 148 °C. For the same compound, the solubility at 20 min in data set [1] was > 250 µg/mL. Turning to `CC(C)(O)CC[C@H](C[C@H](O)[C@H](Cc1cccs1)NC(=O)c1cnc2ccccc2n1)C(N)=O` [Example 1, QUINOXALINE-2-CARBOXYLIC ACID (4(R)-CARBAMOYL-2(S),7-DIHYDROXY-7-METHYL-1(S)-THIOPHEN-2-YLMETHYL-OCTYL)-AMIDE], the solubility at 20 min in data set [1] was > 250 µg/mL. As for `CC(C)(O)CC[C@H](C[C@H](O)[C@H](Cc1ccccc1)NC(=O)c1cnc2ccccc2n1)C(=O)NO` [Example 6, Quinoxaline-2-carboxylic acid (1(S)-benzyl-2(S),7-dihydroxy-4(R)-hydroxycarbamoyl-7-methyl-octyl)-amide], the melting point was 108 to 110 °C. In addition, in data set [1], the solubility at 20 min was > 250 µg/mL.

Take `CC(C)(O)CC[C@H](C[C@H](O)[C@H](Cc1cccc2ccccc12)NC(=O)c1cnc2ccccc2n1)C(N)=O` [Example 12, Quinoxaline-2-carboxylic acid (4(R)-carbamoyl-2(S),7-dihydroxy-7-methyl-1(S)-naphthalen-1-ylmethyl-octyl)-amide]: the melting point lay within 155 to 158 °C. The solubility at 20 min in data set [1] was > 250 µg/mL. The compound `CC(C)(O)CC[C@H](C[C@H](O)[C@H](Cc1ccccc1F)NC(=O)c1cnc2ccccc2n1)C(=O)NO` [Example 8, Quinoxaline-2-carboxylic acid [1(S)-(2-fluoro-benzyl)-2(S),7-dihydroxy-4(R)-hydroxycarbamoyl-7-methyl-octyl]-amide] returned a melting point of 130 to 131 °C. In addition, in data set [1], the solubility at 20 min is > 250 µg/mL. On to `CC(C)(F)CC[C@H](C[C@H](O)[C@H](Cc1ccccc1)NC(=O)c1cnc(Cl)c(Cl)c1)C(N)=O` [Example 247], for which, in data set [2], the Solubility result is recorded as “less than 5 μg/mL”.

Take `CC(C)(O)CC[C@H](C[C@H](O)[C@H](Cc1ccc(F)c(F)c1)NC(=O)c1cnc2ccccc2n1)C(=O)NO` [Example 10, Quinoxaline-2-carboxylic acid [1(S)-(3,4-difluoro-benzyl)-2(S),7-dihydroxy-4(R)-hydroxycarbamoyl-7-methyloctyl]-amide]: the melting point was in the range of 150 to 153 °C. The solubility at 20 min in data set [1] is > 200 µg/mL. Consider `CC(C)(O)CC[C@H](C[C@H](O)[C@H](Cc1ccccc1Cl)NC(=O)c1cnc2ccccc2n1)C(N)=O` [Example 7, Quinoxaline-2-carboxylic acid [4(R)-carbamoyl-1(S)-(2-chloro-benzyl)-2(S),7-dihydroxy-7-methyl-octyl]-amide], for which the solubility at 20 min in data set [1] was > 250 µg/mL. For `CC(C)(O)CC[C@H](C[C@H](O)[C@H](Cc1ccccc1)NC(=O)c1cnc2c(F)c(F)c(F)cc2c1)C(N)=O` [Example 5, 6,7,8-Trifluoro-quinoline-3-carboxylic acid (1(S)-benzyl-4(R)-carbamoyl 2(S),7-dihydroxy-7-methyl-octyl)-amide], the melting point lay within 185 to 188 °C. Further, in data set [1], the solubility at 20 min was > 250 µg/mL. For `CC(C)(O)CC[C@H](C[C@H](O)[C@H](Cc1ccc(F)c(F)c1)NC(=O)c1cnc2ccccc2n1)C(N)=O` [Example 11, Quinoxaline-2-carboxylic acid [4(R)-carbamoyl-1(S)-(3,4-difluoro-benzyl)-2(S),7-dihydroxy-7-methyl-octyl]-amide], in that order: 110 to 120 °C and > 250 µg/mL. For `CNC(=O)[C@H](CC(C)C)C[C@H](O)[C@H](Cc1ccc2ccccc2c1)NC(=O)c1cnc2ccccc2n1` [Example 127, quinoxaline-2-carboxylic acid (2(S)-hydroxy-6-methyl-4(R)-methylcarbamoyl-1(S)-naphthalen-2-ylmethyl-heptyl)-amide, reference compound], in data set [1], the solubility at 20 min is < 5 µg/mL.
